Test results reported in patent US11464749B2, “Bismuth-thiol compositions and methods of use” (Microbion Corporation, priority 2018, dated 2022).
In brackets after ≈: the same amount, converted by molar mass. Several values for one entry are separate records, joined by “and”; a condition that tells them apart may be missing. Equal values may be shown once. Read-outs that look alike come from different tables or passages of the source.

How the values were obtained:
[1] = test system: B. cenocepacia (B cepacia complex); experiment: MIC against CF bacterial strains (Example 5)
M. abscessus complex = experiment: MIC against CF bacterial strains (Example 5); assay type: cell-based, Mycobacterium abscessus; conditions: Mycobacteroides abscessus, read-out: MIC
Protocol: (§1) A range of CF-isolated strains of Mycobacterium avium and Mycobacterium abscessus were included; which allows for understanding of the activity against non-tubercular Mycobacteria (NTM). Two distinct bismuth-thiol compounds were evaluated, including BisEDT and BisBDT. […] The CF-isolates of greater clinical relevance, including both M abscessus spp. and Burkholderia spp., were both consistently found to be much more susceptible to BisEDT and BisBDT.

S. aureus ATCC 29213 = conditions: control strain ATCC 29213; per CLSI M100-S24 or provided by Microbion; cited from earlier work
[2] = test system: B. cepacia (cepacia complex); experiment: MIC against CF bacterial strains (Example 5); assay type: cell-based; conditions: Burkholderia cepacia, strain BC17
Protocol: as §1

[3] = test system: B. multivorans (cepacia complex); experiment: MIC against CF bacterial strains (Example 5); assay type: cell-based; conditions: Burkholderia multivorans, strain BC5b
Protocol: as §1

Burkholderia spp. = experiment: organism not typed; assay type: cell-based; conditions: read-out: Drug B MIC
P. aeruginosa [4] = experiment: FIC checkerboard assay; assay type: cell-based; conditions: Pseudomonas aeruginosa, read-out: Drug B MIC
B. cepacia = experiment: FIC checkerboard assay; assay type: cell-based; conditions: Burkholderia cepacia, read-out: Drug B MIC
B. cenocepacia = experiment: FIC checkerboard assay; assay type: cell-based; conditions: for FICB: FIC of Amikacin in combination with BisEDT, per checkerboard row; for MIC: Burkholderia cenocepacia, read-out: Drug B MIC
Achromobacter spp. = experiment: MIC against CF bacterial strains (Example 5)
P. aeruginosa [5] = experiment: MIC against CF bacterial strains (Example 5); conditions: Pseudomonas aeruginosa
S. maltophilia = experiment: MIC against CF bacterial strains (Example 5); conditions: Stenotrophomonas maltophilia
S. pneumoniae [6] = conditions: S. pneumoniae MMX 6837 (ATCC 49619); cited from earlier work
S. agalactiae = experiment: Broth microdilution MIC (Example 11); conditions: Streptococcus agalactiae
S. pneumoniae [7] = experiment: Broth microdilution MIC (Example 11); conditions: Streptococcus pneumoniae
S. pyogenes = experiment: Broth microdilution MIC (Example 11); conditions: Streptococcus pyogenes
E. faecalis = experiment: Broth microdilution MIC (Example 11); conditions: Enterococcus faecalis, VRE, VRE Lev^R Cip^R Ery^R
[8] = test system: vancomycin-intermediate Staphylococcus aureus (VISA); experiment: Broth microdilution MIC (Example 12); conditions: Staphylococcus aureus, NRS13 / VISA, read-out: MIC values
Bacteroides fragilis = conditions: B. fragilis MMX 123 (ATCC 25285); cited from earlier work
[9] = test system: Staphylococcus aureus (MRSA); experiment: Broth microdilution MIC (Example 11)
Clostridium difficile = conditions: C. difficile MMX 4381 (ATCC 700057); cited from earlier work
[10] = S. agalactiae MMX 3741, ERY^R CC^R
[11] = S. agalactiae MMX 3743, ERY^R CC^R
[12] = S. agalactiae MMX 4077, ERY^R CC^R
[13] = S. agalactiae MMX 4079, ERY^R CC^R Pen^R MEM^R
[14] = S. agalactiae MMX 4086, ERY^R CC^R
[15] = ATCC49619, S. pneumoniae MMX 6837 (ATCC 49619), QC
[16] = S. pneumoniae MMX 880, Lev^R SXT^R CC^R Ery^R Pen^R
[17] = S. pneumoniae MMX 937, Mem^R SXT^R CC^R Ery^R Pen^R
[18] = S. pneumoniae MMX 3959, CC^R Ery^R
[19] = S. pneumoniae MMX 5440, Mem^R SXT^R CC^R Ery^R Pen^R
[20] = S. pneumoniae MMX 5445, Mem^R SXT^R CC^R Ery^R Pen^R
[21] = S. pneumoniae MMX 8133, Mem^R SXT^R CC^R Ery^R Pen^R
[22] = S. pyogenes MMX 3820, ERY^R CLI^R
[23] = S. pyogenes MMX 3929, ERY^R CC^R
[24] = S. pyogenes MMX 5091, ERY^R CC^R

SMILES: NCC[C@H](O)C(=O)N[C@@H]1C[C@H](N)[C@@H](O[C@H]2O[C@H](CN)[C@@H](O)[C@H](O)[C@H]2O)[C@H](O)[C@H]1O[C@H]1O[C@H](CO)[C@@H](O)[C@H](N)[C@H]1O [Amikacin, reference compound]
- MIC ([1]; Burkholderia cenocepacia): > 64 mg/L
- MIC ([1]; strain AU197): >64 mg/L
- MIC (M. abscessus complex; AMT0130-8, M abscessus/massiliense complex): 16 mg/L (≈ 27.3 µM)
- MIC (M. abscessus complex; AMT153-9, M abscessus/massiliense complex): 32 mg/L (≈ 54.6 µM)
- MIC (M. abscessus complex; AMT0493-2, M abscessus/massiliense complex, Amikacin resistant): > 64 mg/L
- MIC (M. abscessus complex; ATCC19977, ATCC 19977, M abscessus/massiliense complex, Macrolide resistant (inducible)): 8 mg/L (≈ 13.7 µM)
- Expected MIC: goal (acceptable range) (S. aureus ATCC 29213): 2 (1-4) mcg/mL
- MIC [2]: > 64 mg/L
- MIC [3]: > 64 mg/L
- MIC (Burkholderia spp.): > 256 mg/L
- MIC (P. aeruginosa [4]; Amikacin alone, FIC panel with BisEDT, P. aeruginosa 6322): 64 mg/L
- MIC (P. aeruginosa [4]; P. aeruginosa 6977, Amikacin alone (checkerboard with BisEDT)): 16 mg/L
- MIC (P. aeruginosa [4]; P. aeruginosa 7745, Amikacin alone (checkerboard with BisEDT)): 4 mg/L
- MIC (P. aeruginosa [4]; P. aeruginosa 8798, Amikacin alone (checkerboard with BisEDT)): 128 mg/L
- MIC (P. aeruginosa [4]; P. aeruginosa 9108, Amikacin alone (checkerboard with BisEDT)): 4 mg/L
- MIC (B. cepacia; B. cepacia 546, Amikacin alone (checkerboard with BisEDT)): 64 mg/L
- MIC (B. cepacia; B. cepacia 1793, Amikacin alone (panel with BisEDT)): 32 mg/L
- FICB (B. cenocepacia; B. cenocepacia 548): 0.25 and 0.5
- FICB (B. cenocepacia; B. cenocepacia 813): 0.5 and 1
- MIC (B. cenocepacia; B. cenocepacia 548, Amikacin alone (panel with BisEDT)): 128 mg/L
- MIC (B. cenocepacia): > 256 mg/L
- MIC (Achromobacter spp.): > 64 mg/L
- MIC (Achromobacter spp.; Achromobacter): 64 mg/L (≈ 109 µM)
- MIC (P. aeruginosa [5]): 16 mg/L (≈ 27.3 µM)
- MIC (P. aeruginosa [5]; strain AGR14, Multi-drug resistant): > 64 mg/L
- MIC (P. aeruginosa [5]; strain MR14, Multi-drug resistant): > 64 mg/L
- MIC (S. maltophilia): 64 mg/L (≈ 109 µM)

SMILES: CC1(C)S[C@@H]2[C@H](NC(=O)Cc3ccccc3)C(=O)N2[C@H]1C(=O)O [Penicillin]
- MIC, CLSI QC range (S. pneumoniae [6]): (0.25-1) μg/mL
- MIC (S. agalactiae; [10]): 0.03 mg/L (≈ 0.0897 µM)
- MIC (S. agalactiae; [11]): 0.06 mg/L (≈ 0.179 µM)
- MIC (S. agalactiae; [12]): 0.06 mg/L (≈ 0.179 µM)
- MIC (S. agalactiae; [13]): 2 mg/L (≈ 5.98 µM)
- MIC (S. agalactiae; [14]): 0.06 mg/L (≈ 0.179 µM)
- MIC (S. pneumoniae [7]; [15]): 0.25 mg/L (≈ 0.748 µM)
- MIC (S. pneumoniae [7]; [16]): 2 mg/L (≈ 5.98 µM)
- MIC (S. pneumoniae [7]; [17]): 4 mg/L (≈ 12 µM)
- MIC (S. pneumoniae [7]; [18]): 0.12 mg/L (≈ 0.359 µM)
- MIC (S. pneumoniae [7]; [19]): 4 mg/L (≈ 12 µM)
- MIC (S. pneumoniae [7]; [20]): 4 mg/L (≈ 12 µM)
- MIC (S. pneumoniae [7]; [21]): 4 mg/L (≈ 12 µM)
- MIC (S. pyogenes; S. pyogenes MMX 3068, Ery^R): ≤ 0.008 mg/L
- MIC (S. pyogenes; [22]): ≤ 0.008 mg/L
- MIC (S. pyogenes; S. pyogenes MMX 3919, ERY^R): ≤ 0.008 mg/L
- MIC (S. pyogenes; [23]): ≤ 0.008 mg/L
- MIC (S. pyogenes; [24]): ≤ 0.008 mg/L

SMILES: CCC[C@@H]1C[C@@H](C(=O)N[C@@H]([C@H]2O[C@H](SC)[C@H](O)[C@@H](O)[C@H]2O)[C@H](C)Cl)N(C)C1 [clindamycin]
- MIC (E. faecalis; E. faecalis MMX 8960): > 32 mg/L
- MIC (E. faecalis; E. faecalis MMX 8961): > 32 mg/L
- MIC (E. faecalis; E. faecalis MMX 8962): > 32 mg/L
- MIC [8]: ≥ 4 mg/L
- MIC, CLSI QC range (Bacteroides fragilis): (0.5-2)^1 ^ pg/mL
- MIC (S. agalactiae; [10]): > 8 mg/L
- MIC (S. agalactiae; [11]): > 8 mg/L
- MIC (S. agalactiae; [12]): > 8 mg/L
- MIC (S. agalactiae; [13]): > 8 mg/L
- MIC (S. agalactiae; [14]): > 8 mg/L
- MIC ([9]; ATCC29213|MRSA|MSSA, S. aureus MMX 101 (ATCC 29213), QC, MSSA): 0.12 mg/L (≈ 0.282 µM)
- MIC ([9]; MRSA, S. aureus MMX 5373, MRSA Lev^R Cip^R CC^R Ery^R Ox^R): > 32 mg/L
- MIC ([9]; MRSA, S. aureus MMX 6311, MRSA Lev^R Cip^R CC^R Ery^R Ox^R): > 32 mg/L
- MIC ([9]; MRSA, S. aureus MMX 9203, MRSA Lev^R Cip^R Ery^R Ox^R): 0.12 mg/L (≈ 0.282 µM)
- MIC ([9]; MRSA, S. aureus MMX 9204, MRSA Lev^R Cip^R Ery^R Ox^R): 0.12 mg/L (≈ 0.282 µM)
- MIC ([9]; MRSA, S. aureus MMX 9205, MRSA Lev^R Cip^R CC^R Ery^R Ox^R): > 32 mg/L
- MIC (S. pneumoniae [7]; [15]): 0.06 mg/L (≈ 0.141 µM)
- MIC (S. pneumoniae [7]; [16]): > 8 mg/L
- MIC (S. pneumoniae [7]; [17]): > 8 mg/L
- MIC (S. pneumoniae [7]; [18]): > 8 mg/L
- MIC (S. pneumoniae [7]; [19]): > 8 mg/L
- MIC (S. pneumoniae [7]; [20]): > 8 mg/L
- MIC (S. pneumoniae [7]; [21]): > 8 mg/L
- MIC (S. pyogenes; S. pyogenes MMX 3068, Ery^R): 0.06 mg/L (≈ 0.141 µM)
- MIC (S. pyogenes; [22]): 1 mg/L (≈ 2.35 µM)
- MIC (S. pyogenes; S. pyogenes MMX 3919, ERY^R): 0.12 mg/L (≈ 0.282 µM)
- MIC (S. pyogenes; [23]): > 8 mg/L
- MIC (S. pyogenes; [24]): > 8 mg/L
- MIC, CLSI QC range (Clostridium difficile): (2-8) pg/mL
